Patent US9018383B2, “Acylamino-substituted cyclic carboxylic acid derivatives and their use as pharmaceuticals” (Sanofi, priority 2009, dated 2015)

Columns and labels:
human Edg-2 receptor = human Edg-2 receptor (Homo sapiens, UniProt Q92633); assay: Determination of Edg-2 receptor inhibition by FLIPR measurements (LPA-mediated calcium liberation); assay type: cell-based; conditions: CHO cells overexpressing human Edg-2 receptor, LPA 100 nM, fluo-4 calcium fluorescence; read-out: Inhibitory concentrations IC50 for inhibition of the Edg-2 receptor
Outline: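 CHO cells stably overexpressing human Edg-2, loaded with fluo-4 AM, were pre-incubated ~5 min with compound (≤0.3% DMSO), then stimulated with 100 nM LPA 18:1 in HBSS/HEPES/probenecid, pH 7.5. Peak calcium fluorescence over ~3 min, baseline-corrected, versus DMSO gave % inhibition; IC50 from triplicates.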

[1] = system: unilateral ureteral obstruction; conditions: model of unilateral ureteral obstruction; cited from earlier work
bone metastasis = conditions: in vivo; cited from earlier work
platelet activation = conditions: cited from earlier work
[2] = system: vascular smooth muscle cells and endothelial cells; conditions: cited from earlier work
mesangial cells = conditions: cited from earlier work

Chain of human Edg-2 receptor (Q92633 whole entry): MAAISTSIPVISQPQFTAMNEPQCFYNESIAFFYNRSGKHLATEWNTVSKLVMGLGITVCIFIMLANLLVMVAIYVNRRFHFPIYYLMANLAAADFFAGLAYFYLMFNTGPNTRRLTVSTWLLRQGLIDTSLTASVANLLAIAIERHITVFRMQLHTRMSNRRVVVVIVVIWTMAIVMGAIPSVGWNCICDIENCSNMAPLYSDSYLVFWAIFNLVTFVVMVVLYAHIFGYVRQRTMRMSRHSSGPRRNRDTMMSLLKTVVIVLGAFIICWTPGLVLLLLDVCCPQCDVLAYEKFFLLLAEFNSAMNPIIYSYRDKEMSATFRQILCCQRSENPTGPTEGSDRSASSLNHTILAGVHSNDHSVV

| IC50 (human Edg-2 receptor) | Compound | also measured |
| --- | --- | --- |
| < 100 nM | COc1ccc(-c2cc(C(=O)N[C@]3(C(=O)O)CC[C@@H](C)CC3)cc(F)c2OC)cc1Cl [Example 446, Trans-1-[(3′-Chloro-5-fluoro-6,4′-dimethoxy-biphenyl-3-carbonyl)-amino]-4-methyl-cyclohexanecarboxylic acid] | – |
| < 100 nM | CC[C@H]1CC[C@](NC(=O)c2cc(F)c(OC)c(-c3ccc(OC)c(Cl)c3)c2)(C(=O)O)CC1 [Example 447, Cis-1-[(3′-chloro-5-fluoro-6,4′-dimethoxy-biphenyl-3-carbonyl)-amino]-4-ethyl-cyclohexanecarboxylic acid] | – |
| < 100 nM | COc1ccc(-c2cc(C(=O)N[C@]3(C(=O)O)CC[C@H](C(F)(F)F)CC3)cc(F)c2OC)cc1Cl [Example 448, Cis-1-[(3′-Chloro-5-fluoro-6,4′-dimethoxy-biphenyl-3-carbonyl)-amino]-4-trifluoromethyl-cyclohexanecarboxylic acid] | – |
| 100 to 1000 nM | COc1ncc(-c2cc(C(=O)N[C@]3(C(=O)O)CC[C@@H](C)CC3)cc(F)c2OC)cc1Cl [Example 449, 1-[3-(5-Chloro-6-methoxy-pyridin-3-yl)-5-fluoro-4-methoxy-benzoylamino]-4-methyl-cyclohexanecarboxylic acid] | – |
| < 100 nM | CC[C@H]1CC[C@](NC(=O)c2cc(F)c(OC)c(-c3cnc(OC)c(Cl)c3)c2)(C(=O)O)CC1 [Example 450, 1-[3-(5-Chloro-6-methoxy-pyridin-3-yl)-5-fluoro-4-methoxy-benzoylamino]-4-ethyl-cyclohexanecarboxylic acid] | – |
| < 100 nM | COc1ccc(-c2cncc(C(=O)N[C@]3(C(=O)O)CC[C@H](C(F)(F)F)CC3)c2)cc1Cl [Example 451, 1-{[5-(3-Chloro-4-methoxy-phenyl)-pyridine-3-carbonyl]-amino}-4-trifluoromethyl-cyclohexanecarboxylic acid] | – |
| 100 to 1000 nM | C[C@H]1CC[C@@](NC(=O)c2ccc(C(F)(F)F)c(-n3ccc4ccccc43)c2)(C(=O)O)CC1 [Example 452, 1-(3-Indol-1-yl-4-trifluoromethyl-benzoylamino)-4-methyl-cyclohexanecarboxylic acid] | – |
| < 100 nM | CC[C@H]1CC[C@](NC(=O)c2cncc(-c3ccc(OC)c(Cl)c3)c2)(C(=O)O)CC1 [Example 453, 1-{[5-(3-Chloro-4-methoxy-phenyl)-pyridine-3-carbonyl]-amino}-4-ethyl-cyclohexanecarboxylic acid] | – |
| < 100 nM | Cc1cccc(CCOc2cc(C(=O)N[C@]3(C(=O)O)CC[C@H](C(F)(F)F)CC3)cc3c2OC(F)(F)O3)c1 [Example 454, Cis-1-{[2,2-Difluoro-7-(2-m-tolyl-ethoxy)-benzo[1,3]dioxole-5-carbonyl]-amino}-4-trifluoromethyl-cyclohexanecarboxylic acid] | – |
| < 100 nM | Cc1cccc(CCOc2cc(C(=O)NC3(C(=O)O)CCCCCC3)cc3c2OC(F)(F)O3)c1 [Example 455, 1-{[2,2-Difluoro-7-(2-m-tolyl-ethoxy)-benzo[1,3]dioxole-5-carbonyl]-amino}-cycloheptanecarboxylic acid] | – |
| < 100 nM | CC[C@H]1CC[C@](NC(=O)c2cc(OCCc3cccc(C)c3)c3c(c2)OC(F)(F)O3)(C(=O)O)CC1 [Example 456, Cis-1-{[2,2-Difluoro-7-(2-m-tolyl-ethoxy)-benzo[1,3]dioxole-5-carbonyl]-amino}-4-ethyl-cyclohexanecarboxylic acid] | – |
| 100 to 1000 nM | COc1ccc(C(=O)NC2(C(=O)O)CCCCCC2)cc1-c1cccc(C2COC2)c1 [Example 457, 1-[(6-Methoxy-3′-oxetan-3-yl-biphenyl-3-carbonyl)-amino]-cycloheptanecarboxylic acid] | – |
| < 100 nM | CC[C@H]1CC[C@](NC(=O)c2ccc(OC)c(-c3cccc(C4COC4)c3)c2)(C(=O)O)CC1 [Example 458, Cis-4-Ethyl-1-[(6-methoxy-3′-oxetan-3-yl-biphenyl-3-carbonyl)-amino]-cyclohexanecarboxylic acid] | – |
| < 100 nM | COc1ccc(C(=O)N[C@]2(C(=O)O)CC[C@H](C(F)(F)F)CC2)cc1-c1cccc(C2COC2)c1 [Example 459, 1-[(6-Methoxy-3′-oxetan-3-yl-biphenyl-3-carbonyl)-amino]-4-trifluoromethyl-cyclohexanecarboxylic acid] | – |
| 100 to 1000 nM | COc1ccc(C(=O)N[C@]2(C(=O)O)CC[C@H](C(F)(F)F)CC2)cc1OCCc1cccc(C2COC2)c1 [Example 460, 1-{4-Methoxy-3-[2-(3-oxetan-3-yl-phenyl)-ethoxy]-benzoylamino}-4-trifluoromethyl-cyclohexanecarboxylic acid] | – |
| 100 to 1000 nM | CC[C@H]1CC[C@](NC(=O)c2ccc(CCS(C)(=O)=O)c(OCCc3cccc(C)c3)c2)(C(=O)O)CC1 [Example 462, Cis-4-Ethyl-1-[4-(2-methanesulfonyl-ethyl)-3-(2-m-tolyl-ethoxy)-benzoylamino]-cyclohexanecarboxylic acid] | – |
| < 100 nM | CC[C@H]1CC[C@](NC(=O)c2cc3c(c(-c4ccc(OC)c(Cl)c4)c2)OC(F)(F)O3)(C(=O)O)CC1 [Example 463, Cis-1-{[7-(3-Chloro-4-methoxy-phenyl)-2,2-difluoro-benzo[1,3]dioxole-5-carbonyl]-amino}-4-ethyl-cyclohexanecarboxylic acid] | – |
| – | Cc1noc(-c2ccc(CSCCC(=O)O)cc2)c1NC(=O)OC(C)c1ccccc1Cl (centres unmarked) [Ki16425] | renal injury [1]: attenuated; progression of bone metastasis (bone metastasis): reduced |
| – | dioctanoylglycerol pyrophosphate [DGPP(8:0)] | effects of LPA, moxLDL or lipid core extracts from human atherosclerotic plaques on platelet activation (platelet activation): abrogated; LPA-induced oxidative stress [2]: attenuated; LPA-induced proliferative response of mesangial cells (mesangial cells): inhibited |

| Compound | IC50 (human Edg-2 receptor) | also measured |
| --- | --- | --- |
| cis-1-{[5-(3-Chloro-4-methoxy-phenyl)-6-methoxy-pyridine-3-carbonyl]-amino}-4-ethyl-cyclohexanecarboxylic acid [Example 305] | < 100 nM | – |
